Measurements reported in article PMC8910920 (International Journal of Molecular Sciences, 2022).

Assays:
DRG sensory neurons = assay: Current-clamp, membrane resting potential of DRG sensory neurons; format: cell-based, rat; conditions: 10 μM
Method: In order to test if compound RGM8-51 could affect the membrane resting potential (MRP) of DRG sensory neurons, we also measured MRP of sensory neurons in the current-clamp mode of patch-clamp.
Changes in membrane potential were studied in neonatal DRGs isolated from 3–5 days-old Wistar rats. After isolation, DRGs were digested first using collagenase type IA (0.25% w/v) in DMEM GlutaMax with penicillin/streptomycin (P/S) solution (1% v/v) for 1 h (37 °C, 5% CO2, ThermoScientific incubator) and secondly by mechanical dissociation. Single cell suspension was passed through a […] cell strainer and washed with DMEM GlutaMax with FBS (10%v/v) and P/S solution (1% v/v). […]
For current-clamp recordings from rat DRG neurons the intracellular pipette solution contained (in mM): 4 NaCl, 126 K gluconate, 0.02 CaCl2, 1 MgSO4, 5 HEPES, 15 glucose, 3 ATP, 0.1 GTP and 5 EGTA, pH 7.2 with KOH and the extracellular solution contained (in mM): 140 NaCl, 4 KCl, 2 CaCl2, 2 MgCl2, 10 HEPES, 5 glucose and 20 mannitol, pH 7.4 with NaOH. The membrane potential was measured in the absence and the presence of compound RGM8-51 at 10 μM in a time interval of 1 min.
Data analysis: For the whole-cell patch-clamp experiments, results are expressed as the percentage of remaining activation of the TRPM8 channel. […] All data are expressed as the mean ± standard error of the mean (SEM) (n = 5–8). […]

[1] = system: CCI rats, heat hypersensitivity; assay: CCI model of neuropathic pain, heat sensitivity (Hargreaves test); format: in vivo, rat
Method: The CCI model of neuropathic pain allowed the evaluation of the effect RGM8-51 on cold, heat and mechanical sensitivity, as assayed by the acetone test, the Hargreaves test, and the automatized von Frey test, respectively. RGM8-51 was applied either locally (i.pl.; 10 µg) in the affected paw or systemically (intraperitoneally, i.p., 10 and 30 mg/kg) and the effect evaluated before (Baseline) and after CCI surgery. The nocifensive response after administration of RGM8-51 was compared with that of vehicle, while non-operated animals and the uninjured (contralateral) hind paw in CCI animals were used as controls.
Adult male Sprague-Dawley rats (weighing 200–220 g/6–8 weeks old) were used in these experiments. All experimental procedures were conducted according to the animal welfare guidelines of the European Community (European Directive 2010/63/UE) to minimize animal suffering and were approved by Universidad Complutense de Madrid and Comunidad de Madrid ethical committees on animal experimentation (PROEX 207.8/21). […]
For behavioral testing, rats were placed in individual methacrylate boxes with a wire mesh floor, and after a period of 15 min acclimatization, the cold, heat and mechanical sensitivity of the ipsilateral and contralateral paws was determined. Cold sensitivity was assessed with the acetone test. In total, 100 µL acetone were locally applied to the plantar surface of the hind paw and the duration of the subsequent nocifensive response (licking, brushing, and flinching of the paw) was determined during 60 s. Acetone application and assessment were repeated 2 times with a 5 min interval and the sum of the two values was recorded. Heat sensitivity was determined with the Hargreaves test, which uses infrared light as a heat source, with a Hargreaves apparatus (Serie 8, Model 336, IITC Life Science, Woodland Hills, CA USA). The light beam was directed to the plantar surface of the hind paw and the time from the beginning of irradiation to the appearance of first paw withdrawal movement was measured (paw withdrawal latency). […]

Q: With `C[C@@H]1C(=O)N(C[C@H](Cc2ccccc2)N(Cc2ccccc2)Cc2ccccc2)[C@]1(Cc1ccccc1)C(=O)OC(C)(C)C` [RGM8-51, 4(S)-Benzyl-3S-methyl-4-(tert-butoxy)carbonyl-1-[(2′S-dibenzylamino-3′-phenyl)prop-1′-yl]-2-oxoazetidine] as the molecule, how does the “effect on membrane resting potential (MRP)” value (DRG sensory neurons) read?
A: did not alter the MRP

Q: What about the “heat hypersensitivity in CCI rats” value ([1]; i.p. 10 and 30 mg/kg, dose-dependently) of the same molecule?
A: effective in decreasing hypersensitivity to heat

Q: What about the “heat hypersensitivity in CCI rats” value ([1]; i.pl. 10 µg) of the same molecule?
A: did not influence the animal response to heat

Q: And the “heat perception in non-operated animals (baseline) or uninjured hind paw” value ([1]; rat, in vivo)?
A: had no effect on heat perception
